According to ChEMBL document CHEMBL4396967, “In vitro cytotoxicity screening to identify novel anti-osteosarcoma therapeutics targeting pyruvate dehydrogenase kinase 2” (Bioorg Med Chem Lett, 2019):
Activity calls are given as the source filed them. No cut-off for these calls is given here.

Assays:
[1] = biological target: T1, [Pyruvate dehydrogenase (acetyl-transferring)] kinase isozyme 2, mitochondrial (Homo sapiens, UniProt Q15119); assay: Inhibition of PDK2 (unknown origin)
MG-63 [2] = assay: Antiproliferative activity against human MG63 cells assessed as reduction in cell viability at 10 uM incubated for 72 hrs by MTT assay relative to control; assay type: functional; settings: MG-63, 72 h
[3] = biological target: T1, [Pyruvate dehydrogenase (acetyl-transferring)] kinase isozyme 2, mitochondrial; assay: Inhibition of PDK2 (unknown origin) using PDCE1 as substrate at 5 uM incubated for 30 mins by kinase-Glo reagent based luminescence assay relative to control
MG-63 [4] = assay: Antiproliferative activity against human MG63 cells assessed as reduction in cell viability incubated for 72 hrs by MTT assay; assay type: functional, cell-based; settings: MG-63, 72 h
SAOS-2 [5] = assay: Antiproliferative activity against human Saos2 cells assessed as reduction in cell viability incubated for 72 hrs by MTT assay; assay type: functional, cell-based; settings: SAOS-2, 72 h
SAOS-2 [6] = assay: Antiproliferative activity against human Saos2 cells assessed as reduction in cell viability at 10 uM incubated for 72 hrs by MTT assay relative to control; assay type: functional; settings: SAOS-2, 72 h
[7] = biological target: T1, [Pyruvate dehydrogenase (acetyl-transferring)] kinase isozyme 2, mitochondrial; assay: Inhibition of PDK2 in human MG63 cells assessed as reduction in PDC phosphorylation at 2 or 5 uM incubated for 12 hrs by Western blot analysis; assay type: cell-based
Homo sapiens [8] = species on record: Homo sapiens; assay: Selectivity index, ratio of EC50 of PDK1 (unknown origin) to EC50 of PDK2 (unknown origin)
[9] = biological target: T1, [Pyruvate dehydrogenase (acetyl-transferring)] kinase isozyme 2, mitochondrial; assay: Inhibition of PDK2 in human MG63 cells assessed as reduction in lactate formation at 2 to 10 uM incubated for 4 hrs; assay type: cell-based
Homo sapiens [10] = species on record: Homo sapiens; assay: Selectivity index, ratio of EC50 of PDK4 (unknown origin) to EC50 of PDK2 (unknown origin)
[11] = biological target: [Pyruvate dehydrogenase (acetyl-transferring)] kinase isozyme 3, mitochondrial (Homo sapiens, UniProt Q15120); assay: Inhibition of PDK3 (unknown origin) using PDCE1 as substrate incubated for 30 mins by kinase-Glo reagent based luminescence assay
[Pyruvate dehydrogenase (acetyl-transferring)] kinase isozyme 3, mitochondrial, sequence (Q15120 whole entry): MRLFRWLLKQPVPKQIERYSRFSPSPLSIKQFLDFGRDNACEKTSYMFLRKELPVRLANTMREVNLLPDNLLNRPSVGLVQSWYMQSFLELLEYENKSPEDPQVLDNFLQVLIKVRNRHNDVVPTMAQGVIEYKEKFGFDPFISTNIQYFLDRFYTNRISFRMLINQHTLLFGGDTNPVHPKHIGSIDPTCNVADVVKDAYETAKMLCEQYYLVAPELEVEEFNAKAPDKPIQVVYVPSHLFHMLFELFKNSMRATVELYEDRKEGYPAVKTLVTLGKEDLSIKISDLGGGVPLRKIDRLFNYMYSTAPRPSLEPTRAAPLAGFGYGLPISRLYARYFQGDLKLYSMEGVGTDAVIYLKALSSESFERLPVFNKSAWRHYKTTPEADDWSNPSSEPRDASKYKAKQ

[12] = biological target: T1, [Pyruvate dehydrogenase (acetyl-transferring)] kinase isozyme 2, mitochondrial; assay: Inhibition of PDK2 (unknown origin) using PDCE1 as substrate incubated for 30 mins by kinase-Glo reagent based luminescence assay
Homo sapiens [13] = species on record: Homo sapiens; assay: Selectivity index, ratio of EC50 of PDK3 (unknown origin) to EC50 of PDK2 (unknown origin)
[14] = biological target: T1, [Pyruvate dehydrogenase (acetyl-transferring)] kinase isozyme 2, mitochondrial; assay: Binding affinity to PDK2 (unknown origin) assessed as dissociation constant by ITC analysis
[15] = biological target: [Pyruvate dehydrogenase (acetyl-transferring)] kinase isozyme 4, mitochondrial (Homo sapiens, UniProt Q16654); assay: Inhibition of PDK4 (unknown origin) using PDCE1 as substrate incubated for 30 mins by kinase-Glo reagent based luminescence assay
[Pyruvate dehydrogenase (acetyl-transferring)] kinase isozyme 4, mitochondrial, sequence (Q16654 whole entry): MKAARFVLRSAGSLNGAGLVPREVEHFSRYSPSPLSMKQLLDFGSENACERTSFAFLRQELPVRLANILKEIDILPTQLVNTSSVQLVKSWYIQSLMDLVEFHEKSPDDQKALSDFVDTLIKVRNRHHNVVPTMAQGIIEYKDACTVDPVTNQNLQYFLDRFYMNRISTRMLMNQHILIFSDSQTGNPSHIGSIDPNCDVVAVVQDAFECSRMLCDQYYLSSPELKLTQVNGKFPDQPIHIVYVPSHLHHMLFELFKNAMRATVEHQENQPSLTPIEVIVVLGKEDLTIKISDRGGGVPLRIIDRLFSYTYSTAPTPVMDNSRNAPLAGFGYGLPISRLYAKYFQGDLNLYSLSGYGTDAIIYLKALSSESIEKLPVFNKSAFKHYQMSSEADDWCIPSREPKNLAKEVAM

[16] = biological target: [Pyruvate dehydrogenase (acetyl-transferring)] kinase isozyme 1, mitochondrial (Homo sapiens, UniProt Q15118); assay: Inhibition of PDK1 (unknown origin) using PDCE1 as substrate incubated for 30 mins by kinase-Glo reagent based luminescence assay
[Pyruvate dehydrogenase (acetyl-transferring)] kinase isozyme 1, mitochondrial, sequence (Q15118 whole entry, the tested form may be a part): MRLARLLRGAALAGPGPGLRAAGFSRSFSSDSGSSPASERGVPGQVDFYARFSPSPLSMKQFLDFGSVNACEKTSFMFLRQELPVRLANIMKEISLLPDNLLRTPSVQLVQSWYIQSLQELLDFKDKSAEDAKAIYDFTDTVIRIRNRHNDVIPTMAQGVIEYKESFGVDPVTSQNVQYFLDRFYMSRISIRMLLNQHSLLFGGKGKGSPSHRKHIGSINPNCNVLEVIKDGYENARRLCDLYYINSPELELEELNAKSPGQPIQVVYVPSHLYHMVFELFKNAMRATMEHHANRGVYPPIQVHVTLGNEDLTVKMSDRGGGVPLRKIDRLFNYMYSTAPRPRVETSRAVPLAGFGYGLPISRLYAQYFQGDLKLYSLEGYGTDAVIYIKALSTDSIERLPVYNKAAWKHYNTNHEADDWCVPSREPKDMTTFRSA

[17] = biological target: T1, [Pyruvate dehydrogenase (acetyl-transferring)] kinase isozyme 2, mitochondrial; assay: Inhibition of recombinant human N-terminal His6-tagged SUMO-fused PDK2 expressed in Escherichia coli BL-21 cells preincubated for 15 mins followed by addition of [gamma33-ATP] and measured after 90 secs by Scintillation counting method

SMILES	inhibition at 10 µM (MG-63 [2])	inhibition [3]	IC50 (MG-63 [4])	IC50 (SAOS-2 [5])	inhibition at 10 µM (SAOS-2 [6])	other results
CN(C)C(=O)c1ccc(S(=O)(=O)c2ccc(NC(=O)[C@@](C)(O)C(F)(F)F)c(Cl)c2)cc1	–	–	–	–	–	EC50 [1]: 0.08 µM
CN(C)c1cncc(OC2CCN(C(=O)Cc3c[nH]c4ccccc34)C2)n1 (centres undefined)	83.9%	inactive	2.8 µM	2.2 µM	87.7%	–
O=C(C1=C(CO)C(=O)N(CCCN2CCOCC2)[C@H]1c1ccncc1)c1cccs1	86.9%	inactive	1.2 µM	2 µM	79.3%	–
CC(C)NC(=O)COc1coc(CN2CCN(c3ccccc3F)CC2)cc1=O	78.6%	79.7%	4.7 µM	5.6 µM	75.3%	inhibition [7]: Active; Ratio EC50 (Homo sapiens [8]): 10.6; inhibition [9]: Active; Ratio EC50 (Homo sapiens [10]): 60.9; EC50 [11]: 24.5 µM; EC50 [12]: 1.1 µM; Ratio EC50 (Homo sapiens [13]): 21.9; Kd [14]: 2.35 µM; EC50 [15]: 67 µM; EC50 [16]: 11.7 µM
CSc1nc(N2CCOCC2)c2cnn(CCNC(=O)C3CCCC3)c2n1	53.3%	inactive	> 10 µM	> 10 µM	45.1%	–
Cc1cc(N2CCCCC2)nc(CNC(=O)CNC(=O)c2ccccc2)n1	88.5%	20.1%	2.7 µM	4.8 µM	77.6%	–
Cc1ccccc1OCC(O)Cn1c(C2CC(=O)N(C(C)(C)C)C2)nc2ccccc21 (centres undefined)	72.8%	inactive	7.7 µM	8.9 µM	59.3%	–
COc1ccc(N2CCn3c2nnc(C(=O)NCCCN(C)C)c3=O)cc1	71.1%	inactive	4.9 µM	7.9 µM	65.4%	–
COc1cccc(C(=O)NCc2nc(N3CCCC3)nc(N3CCOCC3)n2)c1	53.8%	inactive	9.2 µM	8.1 µM	68.5%	–
CC(C)NC(=O)COc1coc(CN2CCN(c3ccccc3)CC2)cc1=O	70.6%	64.3%	5.8 µM	5.3 µM	74.5%	EC50 [12]: 3.8 µM
CNC(=O)COc1coc(CN2CCN(c3ccccc3)CC2)cc1=O	66.1%	54.1%	7.9 µM	6.7 µM	71.2%	EC50 [12]: 5.2 µM
Cc1cc(=O)n2nc(N3CCN(C(=O)Cc4c[nH]c5ccccc45)CC3)nc2[nH]1	60.8%	inactive	9.4 µM	7.6 µM	75.9%	–
O=S(=O)(c1ccc(O)cc1O)N1Cc2cc(O)cc(O)c2C1	–	–	–	–	–	EC50 [17]: 0.456 µM
O=C(COc1coc(CN2CCN(c3cccc(Cl)c3)CC2)cc1=O)NC1CCCC1	62.3%	47.5%	8.5 µM	7.7 µM	65.3%	–
O=C(CCn1ccc(=O)[nH]c1=O)N1CCN(C2=CC3CCCCC3N=N2)CC1 (centres undefined)	84.4%	inactive	2.1 µM	1.8 µM	86.7%	–
O=C(CCn1ccc(=O)[nH]c1=O)N1CCC(Cc2n[nH]c(=O)n2-c2ccccc2F)CC1	62.7%	inactive	7.1 µM	> 10 µM	48.9%	–
